Measurements: patent publication US20240116985A1, “STAPLED PEPTIDES AND METHODS THEREOF” (priority 2020, published 2024)

Target: T1, full-length beta-Catenin (Uniprot ID P35222) (Homo sapiens, UniProt P35222)
T1 construct: 10 nM full-length beta-Catenin (Uniprot ID P35222)
T1 sequence (P35222 1-781): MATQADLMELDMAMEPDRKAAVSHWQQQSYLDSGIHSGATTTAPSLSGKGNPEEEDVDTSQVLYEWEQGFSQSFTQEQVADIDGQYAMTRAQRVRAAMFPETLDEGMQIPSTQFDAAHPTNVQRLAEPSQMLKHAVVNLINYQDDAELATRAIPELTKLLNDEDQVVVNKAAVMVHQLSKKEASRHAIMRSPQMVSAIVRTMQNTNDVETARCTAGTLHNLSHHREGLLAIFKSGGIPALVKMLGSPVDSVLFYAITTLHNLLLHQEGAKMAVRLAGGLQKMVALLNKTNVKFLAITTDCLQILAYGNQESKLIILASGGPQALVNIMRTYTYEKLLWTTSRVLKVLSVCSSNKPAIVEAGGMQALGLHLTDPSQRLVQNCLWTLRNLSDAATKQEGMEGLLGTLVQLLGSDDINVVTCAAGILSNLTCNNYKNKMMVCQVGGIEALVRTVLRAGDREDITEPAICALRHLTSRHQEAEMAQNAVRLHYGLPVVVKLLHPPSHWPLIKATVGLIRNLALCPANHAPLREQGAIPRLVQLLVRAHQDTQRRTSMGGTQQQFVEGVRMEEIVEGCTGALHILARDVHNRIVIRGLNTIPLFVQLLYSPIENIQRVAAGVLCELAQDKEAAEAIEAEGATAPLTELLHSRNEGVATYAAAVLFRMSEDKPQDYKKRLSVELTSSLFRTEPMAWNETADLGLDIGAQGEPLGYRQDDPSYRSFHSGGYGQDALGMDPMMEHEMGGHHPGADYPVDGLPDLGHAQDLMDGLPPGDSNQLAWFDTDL
Assay: Fluorescence polarization IC50 (beta-catenin / 5FAM-TCF4 10-53 competition)
Type: binding
Conditions: fluorescence polarization, beta-catenin; read-out: FP EC50

Compound | IC50
CC(=O)N1CCC[C@]12CC=CCCCC1(CCCC=CCCCOC(=O)N3CC[C@@](C(=O)N[C@@H](Cc4ccccc4Cl)C(=O)N[C@@H](Cc4csc5ccccc45)C(=O)N[C@@H](CCC(N)=O)C(N)=O)(C3)NC(=O)[C@H](CC(N)=O)NC(=O)[C@H](Cc3ccccc3)NC(=O)[C@H](C)NC(=O)[C@H](C)NC(=O)[C@H](CN(CC(=O)O)Cc3c(F)c(F)c(F)c(F)c3F)NC(=O)[C@H](CC(=O)O)NC1=O)NC(=O)[C@H](CC(C)(C)C)NC(=O)[C@H](CC(=O)O)NC2=O (stereo partly drawn) [I-1448, Ac-PL3-Asp-Npg-B5-Asp-[Pfbn]GA-Ala-Ala-Phe-Asn-PyrS2-2C1F-BztA-Gln-NH2] | 20 nM
CC(=O)N1CCC[C@]12CC=CCCCC1(CCCC=CCCCCCC[C@@](C)(C(=O)N[C@@H](Cc3ccsc3)C(=O)N[C@@H](Cc3csc4ccccc34)C(=O)N[C@@H](CCC(N)=O)C(N)=O)NC(=O)[C@H](CC(N)=O)NC(=O)[C@H](Cc3ccccc3)NC(=O)[C@H](C)NC(=O)[C@H](C)NC(=O)[C@H](CN(CC(=O)O)C(C)C)NC(=O)[C@H](CC(=O)O)NC1=O)NC(=O)[C@H](CC(C)(C)C)NC(=O)[C@H](CC(=O)O)NC2=O (stereo partly drawn) [I-1452, Ac-PL3-Asp-Npg-B5-Asp-[iPr]GA-Ala-Ala-Phe-Asn-S8-3Thi-BztA-Gln-NH2] | 66 nM

Same assay, conditions: fluorescence polarization; read-out: beta-Catenin FP IC50

Compound | IC50
CC(=O)N1CCC[C@]12CC=CCCCC1(CCCC=CCCCOC(=O)N3CC[C@@](C(=O)N[C@@H](Cc4ccccc4C(F)(F)F)C(=O)N[C@@H](Cc4csc5ccccc45)C(=O)N[C@@H](CCC(N)=O)C(=O)N[C@@H](CC(C)C)C(=O)NC4(C(N)=O)CC4)(C3)NC(=O)[C@H](CC(C)C)NC(=O)[C@H](Cc3ccccc3)NC(=O)[C@H](C)NC(=O)[C@H](C)NC(=O)[C@H](Cc3cccc(C(=O)O)c3)NC(=O)[C@H](CC(=O)O)NC1=O)NC(=O)[C@H](CC(C)(C)C)NC(=O)[C@H](CC(=O)O)NC2=O (stereo partly drawn) [I-2389, Ac-PL3-Asp-Npg-B5-Asp-3COOHF-Ala-Ala-Phe-Leu-PyrS2-2F3MeF-BztA-Gln-Leu-Cpg-NH2] | 72 nM
CC(C)C[C@H](NC(=O)[C@]12CCN(C1)C(=O)OCCCCCCCCC1(CCCCCCCCC(=O)N3CCC[C@@]3(C)C(=O)N[C@@H](CC(=O)O)C(=O)N1)C(=O)N[C@@H](C)C(=O)N[C@@H](CC(=O)O)C(=O)N[C@@H](Cc1cccc(C(=O)O)c1)C(=O)N[C@@H](C)C(=O)N[C@@H](C)C(=O)N[C@@H](Cc1ccccc1)C(=O)N2)C(=O)N[C@@H](Cc1ccsc1)C(=O)N[C@@H](Cc1csc2ccccc12)C(=O)N[C@@H](CCC(N)=O)C(N)=O (stereo partly drawn) [I-2604, 5hexenyl-MePro-Asp-B5-Ala-Asp-3COOHF-Ala-Ala-Phe-PyrS2-Leu-3Thi-BztA-Gln-NH2] | 1120 nM
CC(=O)N1CCC[C@]12CC=CCCCC1(CCCC=CCCCOC(=O)N3CC[C@@](C(=O)N[C@@H](Cc4ccccc4)C(=O)N[C@@H](Cc4csc5ccccc45)C(=O)N[C@@H](CCC(N)=O)C(N)=O)(C3)NC(=O)[C@H](CC(C)C)NC(=O)[C@H](Cc3ccccc3)NC(=O)[C@H](C)NC(=O)[C@H](CCCCNC(C)C)NC(=O)[C@H](Cc3c[nH]cn3)NC(=O)[C@H](CC(=O)O)NC1=O)NC(=O)[C@H](CC1CCCCC1)NC(=O)[C@H](CC(N)=O)NC2=O (stereo partly drawn) [I-2349, Ac-PL3-Asn-Cha-B5-Asp-His-iPrLys-Ala-Phe-Leu-PyrS2-Phe-BztA-Gln-NH2] | 1160 nM
CC(=O)N1CCC[C@]12CC=CCCCC1(CCCC=CCCCCCC[C@@](C)(C(=O)N[C@@H](Cc3ccccc3Cl)C(=O)N[C@@H](Cc3csc4ccccc34)C(=O)N[C@H](CO)[C@@H](C)O)NC(=O)[C@H](CCO)NC(=O)[C@H](Cc3ccccc3)NC(=O)[C@H](C)NC(=O)[C@H](C)NC(=O)[C@H](CC(=O)O)NC(=O)[C@H](CC(=O)O)NC1=O)NC(=O)[C@H](CC(C)(C)C)NC(=O)[C@H](CC(=O)O)NC2=O (stereo partly drawn) [I-1491, Ac-PL3-Asp-Npg-B5-Asp-Asp-Ala-Ala-Phe-Hse-S8-2C1F-BztA-Thro1] | 34 nM
CC(=O)N1CCC[C@]12CC=CCCCC1(CCCC=CCCCCOC(=O)N3CC(C(=O)N[C@@H](Cc4ccsc4)C(=O)N[C@@H](Cc4csc5ccccc45)C(=O)N[C@@H](CCC(N)=O)C(N)=O)(C3)NC(=O)[C@H](CC(C)C)NC(=O)[C@H](Cc3ccccc3)NC(=O)[C@H](C)NC(=O)C(C)(C)NC(=O)[C@H](Cc3cccc(C(=O)O)c3)NC(=O)[C@H](CC(=O)O)NC1=O)NC(=O)[C@H](CC(C)(C)C)NC(=O)[C@H](CC(=O)O)NC2=O (stereo partly drawn) [I-2619, Ac-PL3-Asp-Npg-B5-Asp-3COOHF-Aib-Ala-Phe-Leu-Az3-3Thi-BztA-Gln-NH2] | 36 nM
CC(=O)N1CCC[C@]12CC=CCCCC1(CCCC=CCCOC(=O)N3CC[C@@](C(=O)N[C@@H](Cc4ccsc4)C(=O)N[C@@H](Cc4csc5ccccc45)C(=O)N[C@@H](CCC(N)=O)C(N)=O)(C3)NC(=O)[C@H](CC(N)=O)NC(=O)[C@H](Cc3ccccc3)NC(=O)[C@H](C)NC(=O)[C@H](C)NC(=O)[C@H](CC(=O)O)NC(=O)[C@H](CC(=O)O)NC1=O)NC(=O)[C@H](CC(C)(C)C)NC(=O)[C@H](CC(=O)O)NC2=O (stereo partly drawn) [I-1812, Ac-PL3-Asp-Npg-B5-Asp-Asp-Ala-Ala-Phe-Asn-PyrS1-3Thi-BztA-Gln-NH2] | 181 nM
CC(=O)N1CCC[C@]12CC=CCCCC1(CCCC=CCCCOC(=O)N3CC[C@@](C(=O)N[C@@H](Cc4ccsc4)C(=O)N[C@@H](Cc4csc5ccccc45)C(N)=O)(C3)NC(=O)[C@H](CC(N)=O)NC(=O)[C@H](Cc3ccccc3)NC(=O)[C@H](C)NC(=O)[C@H](C)NC(=O)[C@H]([C@@H](C)O)NC(=O)[C@H](CC(N)=O)NC1=O)NC(=O)[C@H](CC(C)(C)C)NC(=O)[C@H](CC(=O)O)NC2=O (stereo partly drawn) [I-1742, Ac-PL3-Asp-Npg-B5-Asn-Thr-Ala-Ala-Phe-Asn-PyrS2-3Thi-BztA-NH2] | 867 nM
CC(=O)N1CCC[C@]12CC=CCCCC1(CCCC=CCCCOC(=O)N3CC[C@@](C(=O)N[C@@H](Cc4ccccc4Cl)C(=O)N[C@@H](Cc4csc5ccccc45)C(=O)N[C@@H](CCC(N)=O)C(N)=O)(C3)NC(=O)[C@H](CC(N)=O)NC(=O)[C@H](Cc3ccccc3)NC(=O)[C@H](C)NC(=O)[C@H](C)NC(=O)[C@H](CN(CC(=O)O)Cc3c(F)c(F)c(F)c(F)c3F)NC(=O)[C@H](CC(=O)O)NC1=O)NC(=O)[C@H](CC(C)(C)C)NC(=O)[C@H](CC(=O)O)NC2=O (stereo partly drawn) [I-1448, Ac-PL3-Asp-Npg-B5-Asp-[Pfbn]GA-Ala-Ala-Phe-Asn-PyrS2-2C1F-BztA-Gln-NH2] | 20 nM
CC(=O)N1CCC[C@]12CC=CCCCC1(CCCC=CCCCOC(=O)N3CC[C@@](C(=O)N[C@@H](Cc4ccccc4)C(=O)N[C@@H](Cc4csc5ccccc45)C(=O)N[C@@H](CCC(N)=O)C(N)=O)(C3)NC(=O)[C@H](CC(C)C)NC(=O)[C@H](CO)NC(=O)[C@H](C)NC(=O)[C@H](CCCCNC(C)C)NC(=O)[C@H]([C@@H](C)O)NC(=O)[C@H](CC(=O)O)NC1=O)NC(=O)[C@H](CC(C)(C)C)NC(=O)[C@H](CC(N)=O)NC2=O (stereo partly drawn) [I-1597, Ac-PL3-Asn-Npg-B5-Asp-Thr-iPrLys-Ala-Ser-Leu-PyrS2-Phe-BztA-Gln-NH2] | 6990 nM
CC(=O)N1CCC[C@]12CC=CCCCC1(CCCC=CCCCOC(=O)N3CC[C@@](C(=O)N[C@@H](Cc4ccccc4)C(=O)N[C@@H](Cc4csc5ccccc45)C(=O)N[C@@H](CCO)C(N)=O)(C3)NC(=O)[C@H](CC(N)=O)NC(=O)[C@H](Cc3ccccc3)NC(=O)[C@H](CO)NC(=O)[C@H](CCCCNC(C)C)NC(=O)[C@H](CCC(N)=O)NC(=O)[C@H](CC(=O)O)NC1=O)NC(=O)[C@H](CC1CCCCC1)NC(=O)[C@H](CC(N)=O)NC2=O (stereo partly drawn) [I-1931, Ac-PL3-Asn-Cha-B5-Asp-Gln-iPrLys-Ser-Phe-Asn-PyrS2-Phe-BztA-Hse-NH2] | 1560 nM
CC(=O)N1CCC[C@]12CC=CCCCC1(CCCC=CCCCCCC[C@@](C)(C(=O)N[C@@H](Cc3ccsc3)C(=O)N[C@@H](Cc3csc4ccccc34)C(=O)N[C@@H](CCC(N)=O)C(N)=O)NC(=O)[C@H](CC(N)=O)NC(=O)[C@H](Cc3ccccc3)NC(=O)[C@H](C)NC(=O)[C@H](C)NC(=O)[C@H](CN(CC(=O)O)C(C)C)NC(=O)[C@H](CC(=O)O)NC1=O)NC(=O)[C@H](CC(C)(C)C)NC(=O)[C@H](CC(=O)O)NC2=O (stereo partly drawn) [I-1452, Ac-PL3-Asp-Npg-B5-Asp-[iPr]GA-Ala-Ala-Phe-Asn-S8-3Thi-BztA-Gln-NH2] | 66 nM
CC(=O)N1CCC[C@]12CC=CCCCC1(CCCC=CCCCOC(=O)N3CC[C@@](C(=O)N[C@@H](Cc4ccsc4)C(=O)N[C@@H](Cc4csc5ccccc45)C(=O)N[C@@H](CCC(N)=O)C(N)=O)(C3)NC(=O)[C@H](CC(C)C)NC(=O)[C@H](Cc3ccccc3)NC(=O)[C@H](C)NC(=O)[C@H](C)NC(=O)[C@H](CN(CC(=O)O)C(=O)c3ccc(CN4CCOCC4)cc3)NC(=O)[C@H](CC(=O)O)NC1=O)NC(=O)[C@H](CC(C)(C)C)NC(=O)[C@H](CC(=O)O)NC2=O (stereo partly drawn) [I-2238, Ac-PL3-Asp-Npg-B5-Asp-[MeMorphBz]GA-Ala-Ala-Phe-Leu-PyrS2-3Thi-BztA-Gln-NH2] | 11 nM
